Measurements from patent publication EP4631939A1, “SALT AND CRYSTAL FORM OF ANTI-TUMOR HETEROCYCLIC COMPOUND” (CSPC Zhongqi Pharmaceutical Technology (Shijiazhuang) Co., …, priority 2022, dated 2024).

Legend:
[1] = system: human origin B-cell non-Hodgkin's lymphoma Z-138 cell strain; test: Subcutaneous Z-138 xenograft in mice; assay type: in vivo; conditions: subcutaneous xenograft in female NOD/SCID mice
[2] = system: Z-138 cells; test: Z-138 cell growth inhibition test (CellTiter-Glo, 5 days); assay type: cell-based; conditions: Homo sapiens, incubated 5 days (120 h)
Method: The cells were routinely subcultured. After approximately two passages, well-growing cell strains were selected for plating.
• I. The suspension was removed from the incubator, transferred into a 50 mL centrifuge tube, and then centrifuged at 800-1000 rpm for 3-5 min, and the supernatant was discarded. An appropriate volume of culture medium was added to the centrifuge tube, and the cells were gently pipetted to ensure a uniform suspension. Cell counting was performed using the Vi-Cell XR cell counter. • II. Based on the measured cell density, the cell suspension was adjusted to an appropriate concentration. • III. The cell suspension was added to a 384-well plate at a volume of 40 µL/well, with 700 cells/well. For blank control wells, an equal volume of cell-free culture medium was added instead.
• I. The compound was dissolved in 100% DMSO to prepare a 10 mM stock solution. • II. […]
The assay was performed according to the instructions of the Promega CellTiter-Glo luminescent cell viability assay kit (Promega-G7573): • I. The CellTiter-Glo buffer was thawed and let stand at room temperature. • II. […] The luminescence signals were detected on 2104 EnVision plate reader. […]
The dose-response inhibition curve was plotted using XLFit, and IC50 values were calculated using the four-parameter logistic model: [fit = (A + ((B - A)/(1 + ((C/x) ^ D))))].

[3] = target: T1, PRMT5 (Homo sapiens, UniProt O14744); test: PRMT5 enzymatic activity inhibition test ([3H]-SAM FlashPlate); assay type: biochemical; conditions: for IC50: 5 nM PRMT5, 0.3 µM [3H]-SAM, 100 nM polypeptide substrate
T1 construct: purchased Active Motif 31921
T1 sequence (O14744 whole entry): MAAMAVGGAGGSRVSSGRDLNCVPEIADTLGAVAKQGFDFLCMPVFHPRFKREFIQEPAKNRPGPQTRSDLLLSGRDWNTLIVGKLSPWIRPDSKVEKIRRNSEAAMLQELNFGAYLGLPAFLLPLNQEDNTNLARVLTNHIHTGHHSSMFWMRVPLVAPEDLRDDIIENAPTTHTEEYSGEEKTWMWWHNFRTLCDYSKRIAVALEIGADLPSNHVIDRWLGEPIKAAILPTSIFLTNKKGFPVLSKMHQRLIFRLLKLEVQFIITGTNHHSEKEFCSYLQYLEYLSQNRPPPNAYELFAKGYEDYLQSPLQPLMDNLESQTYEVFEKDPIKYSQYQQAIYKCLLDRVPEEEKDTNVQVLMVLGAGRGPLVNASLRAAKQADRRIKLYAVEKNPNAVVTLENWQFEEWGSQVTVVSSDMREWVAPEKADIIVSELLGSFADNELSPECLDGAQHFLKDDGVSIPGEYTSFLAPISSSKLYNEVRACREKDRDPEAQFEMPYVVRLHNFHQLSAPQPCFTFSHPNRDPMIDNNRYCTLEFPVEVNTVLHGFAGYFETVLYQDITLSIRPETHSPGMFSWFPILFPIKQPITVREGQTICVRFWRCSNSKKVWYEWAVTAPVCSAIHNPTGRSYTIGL
T1 sequence (Q9BQA1 whole entry partner): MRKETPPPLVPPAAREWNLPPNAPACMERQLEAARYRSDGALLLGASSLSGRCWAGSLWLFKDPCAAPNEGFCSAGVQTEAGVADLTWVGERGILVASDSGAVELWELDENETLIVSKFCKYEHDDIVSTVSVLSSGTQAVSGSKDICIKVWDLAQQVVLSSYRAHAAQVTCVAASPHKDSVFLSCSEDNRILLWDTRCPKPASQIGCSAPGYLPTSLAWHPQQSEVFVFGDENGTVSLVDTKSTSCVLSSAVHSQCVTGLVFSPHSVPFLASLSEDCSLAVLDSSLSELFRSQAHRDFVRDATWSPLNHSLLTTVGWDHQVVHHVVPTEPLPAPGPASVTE
Method: A 1× enzyme reaction buffer was prepared using 10 mM Tris 8.0 (Sigma, Cat. No. T2694-1L), 0.01% Tween-20 (Sigma, Cat. No. P2287-100ML), and 1 mM DTT (Sigma, Cat. No. D0632-10G). […] Subsequently, the concentration (X) and corresponding inhibition rate (Inh%) (Y) were input into EXCEL. The XLFit plug-in was then used to fit the data using the built-in four-parameter logistic equation: Y = Bottom + (Top - Bottom)/(1 + (IC50/X) […]). The IC50 (half-maximal inhibitory concentration) value for each compound was then calculated.

Row | IC50 [3] [nM] | inhibitory activity against the enzymatic activity ([3]; in vitro, statement in words) | Structure (SMILES) | tumor inhibition effects [1] | IC50 [2] [nM]
1 | 6.4 | strong inhibitory effects | CC(C)Oc1nc(NC2CCN(C(=O)c3ccccc3)CC2)cc(C(=O)N2CC[C@@H](N3CCc4ccccc4C3)[C@H](O)C2)n1 [Example 1, (6-((1-benzoylpiperidin-4-yl)amino)-2-isopropoxypyrimidin-4-yl)((3R,4R)-4-(3,4-dihydroisoquinolin-2(1H)-yl)-3-hydroxypiperidin-1-yl)methanone] | excellent tumor inhibition effects | 46.6
2 | 115 | – | CC(=O)N1CCC(Nc2cc(C(=O)N3CCC(N4CCc5ccccc5C4)CC3)nc(C)n2)CC1 [reference compound, reference compound] | – | 2710
